Experimental data from US9504659B2 (priority 2006, dated 2016).

Test: ER804057 content of the emulsion by extraction and HPLC-UV after storage
Assay type: physicochemical
Conditions: emulsion PIT-ER804057 at 5%; for ER804057 content in the emulsion: theoretical concentration 40 μg/ml
Experimental: The stability of this thermoreversible emulsion was evaluated after storage for 6 months at a temperature of +4° C. by verifying the ER804057 content in the emulsion and by checking the size distribution of oil droplets in the emulsion. To assay ER804057, a selective extraction of ER804057 from the emulsion was carried out, followed by analysis by high performance liquid chromatography (HPLC) coupled to UV detector equipped with […]. The ER804057 content of the emulsion to be verified was determined using a standard range containing between 5 and 25 μg/ml of ER804057. In order to compensate for the variations in extraction yields, a constant amount of an internal standard, the chemical structure of which is very similar to that of ER804057, was introduced into each sample to be assayed (including into the samples of the standard range). This internal standard was the chemical molecule called ER803022.
The sample of PIT-ER804057 at 5% to be assayed was prepared by taking an aliquot of the emulsion PIT-ER804057 at 5%, to which 10 μg of internal standard was added, and which was diluted in water for injectable preparation.
The extraction of ER804057 from the samples of the standard range or from the samples of PIT-ER804057 at 5% was carried out in the following way: The sample was solubilized with CM2:1. The two-phase system obtained was composed of a chloroform phase containing predominantly ER804057 and an aqueous phase containing the other compounds of the emulsion. The chloroform phase was recovered and evaporated under hot conditions under a stream of nitrogen. The dry extract obtained was taken up and again solubilized in the CM2:1 mixture. […] The dry extract derived from each sample was conserved at −20° C. before being analyzed by HPLC.
The dry extract of each sample was taken up with 50 μl of CM4:1, and then diluted to ½ in methanol, then to 1/10th in a mixture of 30% acetonitrile-water for injectable preparation, 20 μl of the dilution were injected into a liquid chromatography apparatus (HPLC Merck Hitachi, serie 7000) comprising a Waters XTerra™ RP8 column pre-equilibrated in a mobile phase consisting of a mixture of 80% of phase A (water for injectable preparation/ethanol 50/50 containing 2% H3PO4) and 20% of phase B (ethanol containing 2% H3PO4), ER804057 and the internal standard were eluted using a gradient of ethanol containing 2% H3PO4. At the outlet of the HPLC, the eluate meets the UV detector and the molecules are detected at the wavelength of 215 nm. […] Once the curve was established, the amount of ER804057 present in the emulsion PIT-ER804057 at 5% was then determined by measuring the ratio of the surface areas of the ER804057/internal standard peaks.

## CCCCCCCCCCCC(=O)CC(=O)N[C@H](COCC[C@@H](CCCCCCC)OC(=O)CCCCCCCCCCC)COP(=O)(O)OCCNC(=O)NCCOP(=O)(O)OC[C@@H](COCC[C@@H](CCCCCCC)OC(=O)CCCCCCCCCCC)NC(=O)CC(=O)CCCCCCCCCCC [ER804057, dodecanoic acid (1R,6R,22R,27R)-1,27-diheptyl-9,19-dihydroxy-9,19-dioxido-14-oxo-6,22-bis[(1,3-dioxotetradecyl)amino]-4,8,10,18,20,24-hexaoxa-13,15-diaza-9,19-diphosphaheptacosane-1,27-diyl ester]
1 month at +4° C.
  ER804057 content in the emulsion: 38 µg/mL
3 months at +4° C.
  ER804057 content in the emulsion: 37 µg/mL
6 months at +4° C.
  change of ER804057 concentration in the emulsion on storage: has not substantially varied
  ER804057 content in the emulsion: 42 µg/mL
